# Data taken from PubChem BioAssay AID256 (DTP/NCI, 2004).
# Values joined by “and” are separate entries in the source; they are usually repeats but may differ in a detail not shown here. Equal values may be shown once. Inconclusive results and toxic doses are left out.
# Tested on: CD2F1 mice, L1210 leukemia ip, survival T/C
# Experiment: NCI In Vivo Anticancer Drug Screen. Data for tumor model L1210 Leukemia (intraperitoneal) in CD2F1 (CDF1) mice
# Details: higher = longer survival
# In short: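 Mice carrying a transplanted tumor received test compound or vehicle alone. The value is the measurement in the treated group divided by that in the vehicle-treated control group.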
# [1] = endpoint: mean survival time, dose: 100.0 mg/kg/injection, schedule: Q04DX003 (ip), vehicle: saline with Tween-80
# [2] = endpoint: mean survival time, dose: 100.0 mg/kg/injection, schedule: Q01DX001 (ip), vehicle: saline with Tween-80
# [3] = endpoint: mean survival time, dose: 200.0 mg/kg/injection, schedule: Q01DX001 (ip), vehicle: saline with Tween-80
# [4] = endpoint: mean survival time, dose: 400.0 mg/kg/injection, schedule: Q01DX001 (ip), vehicle: saline with Tween-80
# [5] = endpoint: mean survival time, dose: 12.5 mg/kg/injection, schedule: Q01DX009 (ip), vehicle: saline with Tween-80
# [6] = endpoint: mean survival time, dose: 25.0 mg/kg/injection, schedule: Q01DX009 (ip), vehicle: saline with Tween-80
# [7] = endpoint: mean survival time, dose: 100.0 mg/kg/injection, schedule: Q01DX001 (ip), vehicle: saline
# [8] = endpoint: mean survival time, dose: 200.0 mg/kg/injection, schedule: Q01DX001 (ip), vehicle: saline
# [9] = endpoint: mean survival time, dose: 400.0 mg/kg/injection, schedule: Q01DX001 (ip), vehicle: saline
compound,measurement,setting,value
S=c1nc[nH]c2nc[nH]c12.[W],T/C,"endpoint: median survival time, dose: 60.0 mg/kg/injection, schedule: Q01DX009 (ip), vehicle: water",151 % of control (2×) and 169 % of control
same,T/C,"endpoint: median survival time, dose: 60.0 mg/kg/injection, schedule: Q## X009 (ip), vehicle: water",169 % of control
same,T/C,"endpoint: median survival time, dose: 80.0 mg/kg/injection, schedule: Q01DX009 (ip), vehicle: water",164 % of control and 167 % of control (2×)
same,T/C,"endpoint: median survival time, dose: 80.0 mg/kg/injection, schedule: Q## X009 (ip), vehicle: water",164 % of control
same,T/C,"endpoint: median survival time, dose: 100.0 mg/kg/injection, schedule: Q01DX009 (ip), vehicle: water",154 % of control
same,T/C,"endpoint: median survival time, dose: 100.0 mg/kg/injection, schedule: Q01DX009 (other), vehicle: water",154 % of control
same,T/C,"endpoint: median survival time, dose: 120.0 mg/kg/injection, schedule: Q01DX009 (ip), vehicle: water",158 % of control (2×) and 164 % of control
same,T/C,"endpoint: median survival time, dose: 120.0 mg/kg/injection, schedule: Q01DX009 (other), vehicle: water",164 % of control
same,T/C,"endpoint: median survival time, dose: 140.0 mg/kg/injection, schedule: Q01DX009 (ip), vehicle: water",163 % of control
same,T/C,"endpoint: median survival time, dose: 140.0 mg/kg/injection, schedule: Q## X009 (ip), vehicle: water",163 % of control
same,T/C,"endpoint: median survival time, dose: 160.0 mg/kg/injection, schedule: Q01DX009 (ip), vehicle: water",164 % of control
same,T/C,"endpoint: median survival time, dose: 160.0 mg/kg/injection, schedule: Q01DX009 (other), vehicle: water",164 % of control
CCOC(=O)CNCC(O)C(Cl)(Cl)Cl (configuration not stated),T/C,[1],102 % of control
same,T/C,"endpoint: mean survival time, dose: 200.0 mg/kg/injection, schedule: Q04DX003 (ip), vehicle: saline with Tween-80",98 % of control
same,T/C,"endpoint: mean survival time, dose: 400.0 mg/kg/injection, schedule: Q04DX003 (ip), vehicle: saline with Tween-80",96 % of control
CC1CCC2(C)CCC3(C)C4=CCC5C(C)(C)C(O)CCC5(C)C4CCC3(C)C2C1C (configuration not stated),T/C,"endpoint: mean survival time, dose: 200.0 mg/kg/injection, schedule: Q04DX003 (ip), vehicle: saline",89 % of control
same,T/C,"endpoint: mean survival time, dose: 400.0 mg/kg/injection, schedule: Q04DX003 (ip), vehicle: saline",96 % of control
CC1COC(C(=O)O)(c2ccccc2)O1 (configuration not stated),T/C,"endpoint: mean survival time, dose: 100.0 mg/kg/injection, schedule: Q04DX002 (ip), vehicle: saline",96 % of control
same,T/C,"endpoint: mean survival time, dose: 200.0 mg/kg/injection, schedule: Q04DX002 (ip), vehicle: saline",108 % of control
same,T/C,"endpoint: mean survival time, dose: 400.0 mg/kg/injection, schedule: Q04DX002 (ip), vehicle: saline",100 % of control
CCCCCCCCCCCCCCSc1ccc(Br)cc1,T/C,[2],110 % of control
same,T/C,[3],101 % of control
same,T/C,[4],93 % of control
OCCC(c1ccccc1)(c1ccccc1)c1ccccc1,T/C,"endpoint: mean survival time, dose: 6.25 mg/kg/injection, schedule: Q01DX009 (ip), vehicle: saline with Tween-80",113 % of control
same,T/C,[5],108 % of control
same,T/C,[6],100 % of control
O/N=C/c1cccc[n+]1Cc1ccccc1,T/C,"endpoint: mean survival time, dose: 1.56 mg/kg/injection, schedule: Q01DX009 (ip), vehicle: Klucel (hydroxypropylcellulose) (HPC)",107 % of control
same,T/C,"endpoint: mean survival time, dose: 3.13 mg/kg/injection, schedule: Q01DX009 (ip), vehicle: Klucel (hydroxypropylcellulose) (HPC)",106 % of control
same,T/C,"endpoint: mean survival time, dose: 6.25 mg/kg/injection, schedule: Q01DX009 (ip), vehicle: Klucel (hydroxypropylcellulose) (HPC)",102 % of control
same,T/C,"endpoint: mean survival time, dose: 12.5 mg/kg/injection, schedule: Q01DX009 (ip), vehicle: Klucel (hydroxypropylcellulose) (HPC)",106 % of control
same,T/C,"endpoint: mean survival time, dose: 25.0 mg/kg/injection, schedule: Q01DX009 (ip), vehicle: Klucel (hydroxypropylcellulose) (HPC)",95 % of control
same,T/C,"endpoint: mean survival time, dose: 25.0 mg/kg/injection, schedule: Q01DX009 (ip), vehicle: water",100 % of control
COCC1OC(COC)C(OC)C1OC (configuration not stated),T/C,"endpoint: mean survival time, dose: 100.0 mg/kg/injection, schedule: Q04DX003 (ip), vehicle: acetone",102 % of control
same,T/C,"endpoint: mean survival time, dose: 200.0 mg/kg/injection, schedule: Q04DX003 (ip), vehicle: acetone",102 % of control
same,T/C,"endpoint: mean survival time, dose: 400.0 mg/kg/injection, schedule: Q04DX003 (ip), vehicle: acetone",94 % of control
CCOCCSc1ccccc1,T/C,[7],104 % of control
same,T/C,[8],102 % of control
same,T/C,[9],102 % of control
CCOC(=O)C1CCCNC1=O (configuration not stated),T/C,[7],101 % of control
same,T/C,[8],94 % of control
same,T/C,[9],95 % of control
COc1ccc(CC2(C#N)c3ccccc3C=CN2C(=O)c2ccccc2)c([N+](=O)[O-])c1OC (configuration not stated),T/C,[2],95 % of control
same,T/C,[3],97 % of control
same,T/C,[4],95 % of control
OCN(CO)c1nc(N(CO)CO)nc(N(CO)CO)n1,T/C,"endpoint: mean survival time, dose: 6.3 mg/kg/injection, schedule: Q01DX009 (ip), vehicle: saline with Tween-80",92 % of control
same,T/C,[5],96 % of control
same,T/C,[6],87 % of control
CC1CP(c2ccccc2)(c2ccccc2)(c2ccccc2)OC1(C(=O)c1ccccc1)c1ccccc1 (configuration not stated),T/C,[6],89 % of control
same,T/C,[1],91 % of control
O=C(CC(=O)c1ccccc1)CC(=O)c1ccccc1,T/C,"endpoint: mean survival time, dose: 100.0 mg/kg/injection, schedule: Q01DX009 (ip), vehicle: saline with Tween-80",98 % of control
same,T/C,"endpoint: mean survival time, dose: 200.0 mg/kg/injection, schedule: Q01DX009 (ip), vehicle: saline with Tween-80",100 % of control
same,T/C,"endpoint: mean survival time, dose: 400.0 mg/kg/injection, schedule: Q01DX009 (ip), vehicle: saline with Tween-80",102 % of control
